Reference: article PMC9181126, “Design, Synthesis, Molecular Docking Analysis and Biological Evaluations of 4-[(Quinolin-4-yl)amino]benzamide Derivatives as Novel Anti-Influenza Virus Agents” (International Journal of Molecular Sciences, 2022)

Tests used:
[1] = system: influenza virus A/WSN/33 (H1N1); experiment: Plaque inhibition assay in MDCK cells; assay type: cell-based; settings: MDCK; concentration 100 µM; read-out: Plaque Inhibition Assay (A/WSN/33, H1N1) Inhibition Rate
[2] = target: ribonucleoprotein (RNP) of influenza virus (Influenza A virus, UniProt P15659); experiment: cell-based; settings: HEK-293T, read-out: RNP Reconstitution Assay Inhibition Rate; for inhibition at 100 µM: concentration 100 µM
[3] = in vitro; assay type: cell-based; settings: human
Method in brief: (§1)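 Cells were seeded and compound medium added after 48 h, then incubated 72 h at 37 °C, 5% CO2. Viability was measured by MTT (4 h), then solubilization and absorbance at 620 nm after a further 3 h. DMSO-only wells were taken as 100% viable.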

[4] = system: HEK293T cells; experiment: in vitro; assay type: cell-based; settings: human, 72 h
Method in brief: as §1

[5] = system: influenza virus A/WSN/33 (H1N1); experiment: microbe, parasite or virus in culture; assay type: cell-based; settings: MDCK, 72 h; for inhibition at 12.5 µM / inhibition at 25 µM / inhibition at 50 µM / inhibition at 100 µM: H1N1|WSN, read-out: Antiviral activity in CPE assay; for EC50: read-out: Cytopathic Effect Assay (A/WSN/33, H1N1) EC50
[6] = in vitro; assay type: cell-based, canine; settings: dog
Method in brief: as §1

[7] = system: MDCK cells; experiment: in vitro; assay type: cell-based, canine; settings: dog, 72 h
Method in brief: as §1

Row | Structure (SMILES) | inhibition at 100 µM [1] | inhibition at 100 µM [2] | CC50 at 72 h [3] | HEK293T cells survival rate ([4]; 3.125 µmol·L−1) | HEK293T cells survival rate ([4]; 6.25 µmol·L−1) | HEK293T cells survival rate ([4]; 12.5 µmol·L−1) | HEK293T cells survival rate ([4]; 25 µmol·L−1) | HEK293T cells survival rate ([4]; 50 µmol·L−1) | HEK293T cells survival rate ([4]; 100 µmol·L−1) | melting point | inhibition at 12.5 µM [5] | inhibition at 25 µM [5] | inhibition at 50 µM [5] | inhibition at 100 µM [5] | EC50 [5] | CC50 at 72 h [6] | MDCK cells survival rate ([7]; 12.5 µmol·L−1) | MDCK cells survival rate ([7]; 25 µmol·L−1) | MDCK cells survival rate ([7]; 50 µmol·L−1) | MDCK cells survival rate ([7]; 100 µmol·L−1) | further results
1 | CCNC(=O)c1ccc(Nc2ccnc3cc(C(F)(F)F)ccc23)cc1 [Compound G01, N-Ethyl-4-{[7-(trifluoromethyl)quinolin-4-yl]amino}benzamide] | 81.6% | 21% | > 100 µM | 91.00±7.40% | 90.01±2.87% | 93.22±5.27% | 92.83±4.26% | 88.18±3.27% | 94.92±8.61% | 262.8 to 264.5 °C | 48 ± 4.04% | 56.6 ± 3.96% | 53 ± 4.28% | 70.9 ± 2.63% | 16.5 ± 5.57 µM | > 100 µM | 123.45±5.51% | 112.08±3.35% | 121.65±8.73% | 160.62±4.70% | –
2 | CC(C)NC(=O)c1ccc(Nc2ccnc3cc(C(F)(F)F)ccc23)cc1 [Compound G02, N-Isopropyl-4-{[7-(trifluoromethyl)quinolin-4-yl]amino}benzamide] | < 10% | 3.1% | > 100 µM | 95.91±3.00% | 87.90±2.52% | 85.31±11.55% | 74.04±2.91% | 75.54±11.17% | 66.13±2.32% | 243.7 to 245.9 °C | 53.6 ± 3.38% | 61.6 ± 2.13% | 76.7 ± 2.26% | 80.6 ± 9.03% | 10.1 ± 1.66 µM | > 100 µM | 153.38±36.06% | 137.54±0.71% | 140.08±12.49% | 203.79±6.42% | –
3 | O=C(NCCO)c1ccc(Nc2ccnc3cc(C(F)(F)F)ccc23)cc1 [Compound G04, N-(2-Hydroxyethyl)-4-{[7-(trifluoromethyl)quinolin-4-yl]amino}benzamide] | 59.3% | 14% | > 100 µM | 112.00±4.22% | 100.01±1.56% | 94.50±4.33% | 91.99±5.43% | 98.62±11.78% | 96.30±10.52% | 262.5 to 264.1 °C | 55.3 ± 4.28% | 54.6 ± 4.19% | 57.1 ± 9.3% | 49.3 ± 0.74% | > 100 µM | > 100 µM | 118.54±1.29% | 110.54±13.59% | 126.43±7.03% | 124.89±12.49% | –
4 | O=C(NCCCO)c1ccc(Nc2ccnc3cc(C(F)(F)F)ccc23)cc1 [Compound G05, N-(3-Hydroxypropyl)-4-{[7-(trifluoromethyl)quinolin-4-yl]amino}benzamide] | 82.9% | 17.6% | > 100 µM | 106.06±4.46% | 109.11±25.17% | 96.82±2.21% | 95.07±1.76% | 93.06±1.61% | 122.90±10.09% | 249.6 to 250.4 °C | 42 ± 5.5% | 48.6 ± 2.31% | 50.2 ± 1.8% | 56 ± 4.37% | 40.9 ± 5.64 µM | > 100 µM | 113.26±1.76% | 110.22±4.44% | 101.63±4.85% | 111.87±2.49% | –
5 | O=C(c1ccc(Nc2ccnc3cc(C(F)(F)F)ccc23)cc1)N1CCOCC1 [Compound G12, Morpholino{4-{[7-(trifluoromethyl)quinolin-4-yl]amino}phenyl}methanone] | < 10% | 50% | > 100 µM | 100.47±5.92% | 89.50±2.30% | 86.67±6.98% | 88.50±7.54% | 80.68±3.36% | 74.00±4.57% | 277.9 to 278.7 °C | 70.9 ± 4.82% | 97.6 ± 3.67% | 75.7 ± 9.49% | 76.7 ± 5.27% | > 100 µM | > 100 µM | 92.77±4.37% | 137.81±3.21% | 130.46±5.65% | 120.48±10.37% | –
6 | O=C(c1ccc(Nc2ccnc3cc(C(F)(F)F)ccc23)cc1)N1CCN(c2ccc(Cl)cc2)CC1 [Compound G17, [4-(4-Chlorophenyl)piperazin-1-yl]{4-{[7-(trifluoromethyl)quinolin-4-yl]amino}phenyl}methanone] | 73.5% | – | > 100 µM | 86.81±4.81% | 89.66±6.31% | 78.02±11.06% | 62.61±12.04% | 52.36±1.02% | 59.17±1.33% | 242 to 242.9 °C | 33.5 ± 1.23% | 27.3 ± 3.16% | 21.1 ± 1.62% | 28.5 ± 7.81% | > 100 µM | > 100 µM | 71.49±1.03% | 65.78±1.15% | 63.22±11.25% | 51.32±5.29% | inhibition at 12.5 µM ([2]; concentration 12.5 µM): 40.2%
7 | COc1ccccc1OCCNC(=O)c1ccc(Nc2ccnc3ccccc23)cc1 [Compound G19, N-{2-(2-Methoxyphenoxy)ethyl}-4-(quinolin-4-ylamino)benzamide] | 82.3% | 13.9% | > 100 µM | 103.14±6.28% | 103.54±9.29% | 103.11±7.45% | 97.97±3.74% | 97.40±3.36% | 112.18±7.45% | 319.5 to 320.2 °C | 131 ± 11.1% | 132 ± 4.75% | 138 ± 9.95% | 122 ± 5.08% | < 10 µM | > 100 µM | 90.89±5.31% | 93.23±8.08% | 102.17±1.95% | 111.55±9.83% | –
